# Test results taken from patent EP4631504A1, “COMPOSITION FOR PREVENTION OR TREATMENT OF FABRY'S DISEASE” (Korea Advanced Institute of Science and Technology, priority 2022, dated 2024).
# “Also recorded” adds a separate entry of the source. Where a name gives a salt, the structure may show the parent alone.
# Columns and labels:
# [1] = test system: Fabry disease vascular endothelial cells; test: Tube formation experiment with ROCK inhibitors; format: cell-based, human; conditions: 5 µM
# Procedure: [Table 1] ROCK inhibitors used in the first experiment
# Second experiment: To confirm whether decreased tube formation in vascular endothelial cells derived from Fabry disease-induced pluripotent stem cells was rescued by treatment with 7 types of ROCK inhibitors (netarsudil, ripasudil, sovesudil, AT13148, AR13503, VX-210, and […]), a tube formation experiment was conducted (Table 2). [Table 2] Types of ROCK inhibitors used in the second experiment
# Matrigel was applied to a 96-well plate which was then stored in a 5% CO2 incubator a 37°C for one day. The next day, each ROCK inhibitor was added to each well at various concentrations (5 µM, 1 µM, 0.5 µM, 0.1 µM, 0.05 µM, and 0.01 µM) together with […] VEGF in EGM-2 media.
# 10,000 vascular endothelial cells per well were applied onto the solidified Matrigel, and after one day, each well was photographed under a microscope. Then, the total tube length was analyzed using Image J to compare the increase and decrease in tube formation.
# Rock1 = Rock1 (Homo sapiens, UniProt Q13464); conditions: cited from earlier work
# Chain of Rock1 (Q13464 whole entry, species assumed): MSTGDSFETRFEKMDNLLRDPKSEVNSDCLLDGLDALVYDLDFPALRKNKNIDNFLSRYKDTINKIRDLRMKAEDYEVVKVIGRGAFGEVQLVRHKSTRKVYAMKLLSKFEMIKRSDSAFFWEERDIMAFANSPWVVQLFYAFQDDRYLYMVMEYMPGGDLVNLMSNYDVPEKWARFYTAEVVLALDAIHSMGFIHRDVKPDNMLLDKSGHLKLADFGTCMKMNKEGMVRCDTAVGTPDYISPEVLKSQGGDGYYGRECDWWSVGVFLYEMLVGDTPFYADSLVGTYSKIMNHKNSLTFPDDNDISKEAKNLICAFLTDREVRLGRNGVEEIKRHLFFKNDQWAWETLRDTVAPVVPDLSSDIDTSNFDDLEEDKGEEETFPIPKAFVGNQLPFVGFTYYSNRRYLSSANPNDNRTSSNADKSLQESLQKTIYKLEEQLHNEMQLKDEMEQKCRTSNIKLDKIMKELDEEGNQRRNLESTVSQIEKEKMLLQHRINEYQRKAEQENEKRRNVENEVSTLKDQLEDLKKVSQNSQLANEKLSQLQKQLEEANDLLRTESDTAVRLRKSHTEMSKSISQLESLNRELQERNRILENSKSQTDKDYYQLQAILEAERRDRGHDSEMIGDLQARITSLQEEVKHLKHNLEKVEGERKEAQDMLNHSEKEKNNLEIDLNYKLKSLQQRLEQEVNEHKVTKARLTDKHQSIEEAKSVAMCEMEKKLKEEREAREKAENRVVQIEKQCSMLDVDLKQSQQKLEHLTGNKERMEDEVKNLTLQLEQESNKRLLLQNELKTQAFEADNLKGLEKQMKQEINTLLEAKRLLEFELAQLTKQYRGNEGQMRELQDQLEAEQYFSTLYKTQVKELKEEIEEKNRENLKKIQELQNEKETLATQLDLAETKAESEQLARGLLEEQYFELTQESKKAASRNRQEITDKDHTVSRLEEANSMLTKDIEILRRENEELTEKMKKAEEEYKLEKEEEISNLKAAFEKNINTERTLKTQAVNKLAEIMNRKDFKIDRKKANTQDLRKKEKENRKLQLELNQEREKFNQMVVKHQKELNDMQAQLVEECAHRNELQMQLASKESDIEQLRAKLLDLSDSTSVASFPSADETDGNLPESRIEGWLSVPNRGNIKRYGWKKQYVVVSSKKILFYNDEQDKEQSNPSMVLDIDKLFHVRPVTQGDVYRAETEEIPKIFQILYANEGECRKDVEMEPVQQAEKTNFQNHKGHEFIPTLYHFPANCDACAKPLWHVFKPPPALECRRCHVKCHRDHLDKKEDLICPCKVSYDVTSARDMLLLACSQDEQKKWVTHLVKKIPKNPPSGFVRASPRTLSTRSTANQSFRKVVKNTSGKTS
# Rock2 = Rock2 (Homo sapiens, UniProt O75116); conditions: cited from earlier work
# Chain of Rock2 (O75116 whole entry, species assumed): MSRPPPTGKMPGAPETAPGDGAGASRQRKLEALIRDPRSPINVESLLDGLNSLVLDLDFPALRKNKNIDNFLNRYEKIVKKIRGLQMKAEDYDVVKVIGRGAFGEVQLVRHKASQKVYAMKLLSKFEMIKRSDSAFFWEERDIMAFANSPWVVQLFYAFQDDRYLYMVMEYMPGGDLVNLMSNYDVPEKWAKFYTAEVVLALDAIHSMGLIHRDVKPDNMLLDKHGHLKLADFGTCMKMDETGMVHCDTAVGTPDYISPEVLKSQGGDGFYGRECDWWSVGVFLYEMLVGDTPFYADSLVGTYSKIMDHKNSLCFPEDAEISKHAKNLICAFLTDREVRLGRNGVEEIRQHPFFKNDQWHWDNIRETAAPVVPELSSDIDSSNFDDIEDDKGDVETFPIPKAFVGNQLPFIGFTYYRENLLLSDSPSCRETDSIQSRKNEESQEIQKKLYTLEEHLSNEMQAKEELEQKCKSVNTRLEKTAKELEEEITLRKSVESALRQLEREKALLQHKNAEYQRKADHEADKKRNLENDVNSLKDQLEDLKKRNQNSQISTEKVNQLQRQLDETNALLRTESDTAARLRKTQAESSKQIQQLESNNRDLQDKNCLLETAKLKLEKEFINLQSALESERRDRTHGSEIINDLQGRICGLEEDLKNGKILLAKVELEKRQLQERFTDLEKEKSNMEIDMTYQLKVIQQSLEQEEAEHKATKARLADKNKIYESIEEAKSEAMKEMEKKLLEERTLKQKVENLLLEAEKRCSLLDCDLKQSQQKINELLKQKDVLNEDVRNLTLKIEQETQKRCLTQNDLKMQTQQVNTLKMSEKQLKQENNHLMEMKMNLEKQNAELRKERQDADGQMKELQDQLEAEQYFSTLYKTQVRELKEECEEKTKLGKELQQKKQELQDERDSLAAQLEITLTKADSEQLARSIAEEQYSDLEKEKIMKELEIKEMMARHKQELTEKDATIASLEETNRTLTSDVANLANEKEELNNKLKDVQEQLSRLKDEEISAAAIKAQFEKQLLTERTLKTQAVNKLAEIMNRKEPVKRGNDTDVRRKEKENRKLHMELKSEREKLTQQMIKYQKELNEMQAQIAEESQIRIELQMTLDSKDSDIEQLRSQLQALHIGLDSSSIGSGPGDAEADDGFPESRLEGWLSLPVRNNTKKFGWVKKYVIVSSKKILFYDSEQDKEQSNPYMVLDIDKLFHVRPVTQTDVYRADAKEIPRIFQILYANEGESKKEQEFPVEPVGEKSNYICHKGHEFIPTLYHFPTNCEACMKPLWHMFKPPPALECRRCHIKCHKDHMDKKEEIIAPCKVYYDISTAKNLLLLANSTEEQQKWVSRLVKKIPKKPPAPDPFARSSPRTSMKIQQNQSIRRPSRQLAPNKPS
# FD-VECs [2] = test: Tube-like structure formation assay of FD-VECs; format: cell-based, human; conditions: for tube formation ability: 0.5, 1, and 5 µM, versus DMSO control; for optimal concentration: based on tube formation of FD-VECs; for tube formation ability of VECs derived from FD-iPSC lines with distinct GLA mutations: fasudil at 5 µM
# Procedure: FD-iPSC lines that were generated from fibroblasts of three FD patients with a GLA variant were used. A wild-type (WT) iPSC line derived from foreskin fibroblasts and a FD1 isogenic iPSC line were used as controls. Human iPSCs (hiPSCs) were maintained in mTeSR1 medium ([…] Technologies, Vancouver, Canada) on culture plates precoated with Corning Matrigel® hESC-Qualified Matrix. The cells were maintained at 37°C in a 5% CO2 incubator. After 7 days of culture, hiPSC colonies were split at a 1:50 ratio using accutase solution (eBioscience, San Diego, CA, USA) and incubated under the same culture conditions for expansion.
# Human iPSCs were differentiated into VECs as described previously, with further optimization. Briefly, hiPSCs were transferred to dishes coated with Matrigel® (BD Biosciences, Franklin Lakes, NJ, USA) and cultured for 2 days in mTESR1 medium ([…] Technologies) at 37°C and 5% CO2. Subsequently, the cells were cultured for a further 2 days in VEC medium (RPMI (HyClone, Logan, MI, USA), 1% B27 (Invitrogen, Carlsbad, CA, USA), and penicillin/streptomycin (Invitrogen)) supplemented with 50 ng/mL Activin A (PeproTech, Rocky Hill, NJ, USA) and 20 ng/mL BMP4 (PeproTech), and 3 µM CHIR990921 (Sigma, St. Louis, MO) at 37°C and 5% CO2. Next, the cells were cultured for 3 days in VEC medium containing 50 ng/mL VEGF-A (PeproTech) and 50 ng/mL bFGF, at 37°C and 5% CO2. To differentiate the vascular progenitors into VECs, CD31^+ cells were sorted from the differentiated cells by MACS using CD31^+ Dynabeads (Thermo Fisher Scientific, Waltham, MA, USA). The CD31^+ cells were transferred to gelatin-coated plates and incubated for 3 days in EGM-2 medium (Lonza, Basel, Switzerland) supplemented with 100 ng/mL VEGF-A and 50 ng/mL bFGF, at 37°C and 5% CO2. The culture medium was changed daily. Finally, the vascular progenitors were cultured in EGM-2 medium without growth factors for 4 days with daily medium change.
# To screen for clinical compounds that could rescue FD-VEC dysfunction, VECs were seeded onto gelatin-coated 96-well plates (SPL Life Sciences, Pocheon, Korea) at a density of 3 × 10^3 cells/cm^2 and maintained in EGM-2 medium without growth factors for 24 hours. […] Subsequently, it was examined whether FD-VECs treated with each selected compound could form tube-like structures on Matrigel®-coated plates. The tube-like structure forming assay was repeated at least three times using different concentrations of each selected compound (0.5, 1, and 5 µM).
# FD-VECs were dissociated after treatment with Accutase (eBioscience) at 37°C for 5 min. Dissociated cells (1 × 10^4) were transferred to Matrigel® matrix (BD Biosciences) in EGM-2 medium supplemented with 100 ng/mL VEGF-A, and then incubated at 37°C and 5% CO2 for 24 hours. Images of the vascular tube-like structures were taken using an inverted microscope (Olympus, Tokyo, Japan). Total tube lengths were measured using ImageJ software, which was freely provided by the […], and its Angiogenesis Analyzer plugin (Carpentier, 2012).
# [3] = test system: p-SMAD2, SMAD2, TSP1, KDR, eNOS; test: Western blot analysis of p-SMAD2, TSP1, KDR and eNOS in FD-VECs; format: cell-based, human; conditions: compared to non-treated FD-VECs
# EndMT of FD-VECs = test: EndMT-associated factors in FD-VECs (Western blot, immunostaining); format: cell-based, human; conditions: for levels of mesenchymal-related markers (COL1A1, ACTA2, SNAI1, and TWIST) / protein level of CD31: Western blot; for fluorescence intensities of EndMT-related factors (ACTA2, SNAI1, COL1A1): immunostaining
# Excerpt: Hyperactive SMAD2 signaling induces EndMT in VECs, thereby reducing angiogenic functionality. […] Before drug treatment, the present inventors performed bulk RNA sequencing of FD-VECs and FD(c)-VECs to examine the mechanism underlying the defective vasculopathy of FD-VECs.
# FD-VECs [4] = test: ROS fluorescence intensity in FD-VECs; format: cell-based, human
# FD-VECs [5] = test: Extracellular flux analysis of oxygen consumption rate (OCR); format: cell-based, human
# [6] = test system: FD mice (Gla^-/-/TSP1^Tg); test: Echocardiography of FD mice after oral administration; format: in vivo; conditions: 10 or 30 mg/kg/day for 6 months
# Excerpt: Therefore, the present inventors hypothesized that Gla^-/- mice expressing human TSP1 (Gla^-/-/TSP1^Tg; hereinafter referred to as FD mice) might be an effective animal model for studying FD-related vasculopathy. […] LVH is known to occur in up to half of males and one-third of females in FD patients (Kampmann C, Linhart A, Baehner F, Palecek T, Wiethoff CM, Miebach E, Whybra C, Gal A, Bultas J, Beck M (2008) Onset and progression of the Anderson-Fabry disease related cardiomyopathy. International Journal of Cardiology 130: 367-73). Thus, the present inventors investigated the cardiac functionality in each mouse group via echocardiography.
# To this end, FD-mice (Gla^-/-/TSP1^Tg) were produced by crossing transgenic mice expressing human TSP1 with Gla^-/- mice. The produced mice were then orally administered lomerizine (10 or 30 mg/kg/day) for 6 months (FIG. 18A).
# [7] = test system: FD mice (Gla^-/-/TSP1^Tg); test: Sweat secretion analysis in FD mice; format: in vivo; conditions: oral, 10 or 30 mg/kg/day for 6 months
# [8] = test system: FD mice (Gla^-/-/TSP1^Tg); test: Heat tolerance test (paw withdrawal latency) in FD mice; format: in vivo; conditions: oral, 10 or 30 mg/kg/day for 6 months
# [9] = test system: FD mice (Gla^-/-/TSP1^Tg); test: Immunohistochemistry and Western blot of renal tissues of FD mice; format: in vivo; conditions: oral administration; for protein levels of fibrotic and inflammatory markers in renal tissues: Western blot; for CD31+ACTA2+ cells in renal tissues / expression levels of F4/80 and LCN2 in renal tissues / expression of COL1A1 in renal tissues: immunohistochemistry
# [10] = test system: Fabry disease mice (Gla^-/-); test: Echocardiography of Gla^-/- mice after co-administration; format: in vivo; conditions: fasudil 30 mg/kg daily oral; enzyme 1 mg/kg i.v. once a week; 6 months
# [11] = test system: Fabry disease mice (Gla^-/-); test: Sweat secretion of Gla^-/- mice after co-administration; format: in vivo; conditions: fasudil 30 mg/kg daily oral; enzyme 1 mg/kg i.v. once a week; 6 months
# [12] = test system: Fabry disease mice (Gla^-/-); test: Hot plate test (55°C) of Gla^-/- mice after co-administration; format: in vivo; conditions: hot plate 55°C; fasudil 30 mg/kg daily oral; enzyme 1 mg/kg i.v. once a week; 6 months
# Procedure: Many Fabry disease patients suffer from peripheral neuropathic pain, and one way to indirectly assess the pain in laboratory animals is to measure the time it takes for the hind limbs to jump on a hot plate at 55°C.
# [13] = test system: Fabry disease mice (Gla^-/-); test: Kidney tissue analysis of Gla^-/- mice after co-administration; format: in vivo; conditions: fasudil 30 mg/kg daily oral; enzyme 1 mg/kg i.v. once a week; 6 months
molecule,measurement,setting,value
"CCCOC(=O)c1cccc(-c2cc(C(=O)Nc3ccncc3F)ccc2CN)c1 [AMA-0076, Sovesudil]",tube formation ability of Fabry disease vascular endothelial cells,[1],increased the tube formation ability
same,IC50,Rock1,3.7 nM
same,IC50,Rock2,23 nM
NC[C@@H](C(=O)Nc1ccc2cnccc2c1)c1ccc(CO)cc1 [AR-13503],tube formation ability of Fabry disease vascular endothelial cells,[1],increased the tube formation ability
same,IC50,Rock2,4.2 nM
NC[C@@](O)(c1ccc(Cl)cc1)c1ccc(-c2cn[nH]c2)cc1 [AT-13148],tube formation ability of Fabry disease vascular endothelial cells,[1],increased the tube formation ability
same,IC50,Rock1,6 nM
same,IC50,Rock2,4 nM
NC(=O)c1ccc(-c2nc(-c3ccc4c(c3)OCCO4)c(-c3ccccn3)[nH]2)cc1 [D-4476],tube formation ability,FD-VECs [2],relatively higher tube formation ability
CC1=C(C(=O)Nc2cc3cn[nH]c3cc2F)C(c2ccc(C(F)(F)F)cc2)CC(=O)N1 (centres unmarked) [GSK429286A],tube formation ability of Fabry disease vascular endothelial cells,[1],effective in improving the impaired tube formation ability
C[C@H]1CNCCCN1S(=O)(=O)c1cccc2cncc(F)c12 [Ripasudil hydrochloride hydrate],tube formation ability of Fabry disease vascular endothelial cells,[1],increased the tube formation ability
NC(=O)c1ccc(-c2nc(-c3ccc4c(c3)OCO4)c(-c3ccccn3)[nH]2)cc1 [SB431542],tube formation ability of Fabry disease vascular endothelial cells,[1],increased tube formation ability
O=C(Nc1ccncc1)c1cc([N+](=O)[O-])ccc1Cl [T0070907],tube formation ability,FD-VECs [2],relatively higher tube formation ability
C[C@@H](N)[C@H]1CC[C@H](C(=O)Nc2ccncc2)CC1 [Y27632],tube formation ability of Fabry disease vascular endothelial cells,[1],effective in improving the impaired tube formation ability
C[C@@H](N)c1ccc(C(=O)Nc2ccnc3[nH]ccc23)cc1 [Y39983],tube formation ability of Fabry disease vascular endothelial cells,[1],effective in improving the impaired tube formation ability
CCOC(CN1CCN(CC(C)C(=O)c2ccccc2)CC1)c1ccccc1 (centres unmarked) [eprazinone],tube formation ability,FD-VECs [2],relatively higher tube formation ability
O=S(=O)(c1cccc2cnccc12)N1CCCNCC1 [fasudil],tube length of FD-VECs,"FD-VECs [2]; 5 µM, compared to the untreated group",significantly increased
same,tube formation ability,FD-VECs [2],relatively higher tube formation ability; also recorded: most effective
same,optimal concentration,FD-VECs [2],5 µM
same,tube formation ability of VECs derived from FD-iPSC lines with distinct GLA mutations,FD-VECs [2],enhanced
same,levels of KDR and eNOS,[3],increased
same,levels of p-SMAD2 and TSP1,[3],reduced
same,"levels of mesenchymal-related markers (COL1A1, ACTA2, SNAI1, and TWIST)",EndMT of FD-VECs,reduced
same,protein level of CD31,EndMT of FD-VECs,increased
same,"fluorescence intensities of EndMT-related factors (ACTA2, SNAI1, COL1A1)",EndMT of FD-VECs,reduced
same,level of ROS,FD-VECs [4],reduced the level of ROS to that seen in WT-VECs and FD(c)-VECs
same,"basal respiration, ATP production, or spare capacity",FD-VECs [5],did not alter
same,maximal respiration,FD-VECs [5],partially reduced
same,LV mass/BW,[6],significantly reduced
same,"cardiac ejection fraction, fractional shortening, and cardiac output",[6],enhanced
same,anhidrosis (number of sweat spots),[7],significantly alleviated
same,heat insensitivity (paw withdrawal latency),[8],significantly alleviated
same,protein levels of fibrotic and inflammatory markers in renal tissues,[9],confirmed by Western blot analysis
same,CD31+ACTA2+ cells in renal tissues,[9],reduced
same,expression levels of F4/80 and LCN2 in renal tissues,[9],reduced
same,expression of COL1A1 in renal tissues,[9],downregulated
same,cardiac function,[10],improvement in cardiac function
same,left ventricular hypertrophy,[10],significant reduction
same,sweating,[11],reduced
same,latency (time for hind limbs to jump on hot plate),[12],slight decrease in latency
same,expression of fibrosis-related marker (COL1A1) and inflammation markers (LCN2 and F4/80) in kidney tissues,[13],reduced
COc1ccc(CN2CCN(C(c3ccc(F)cc3)c3ccc(F)cc3)CC2)c(OC)c1OC [lomerizine],tube formation ability,FD-VECs [2],relatively higher tube formation ability
same,optimal concentration,FD-VECs [2],1 µM
same,tube formation ability of VECs derived from FD-iPSC lines with distinct GLA mutations,FD-VECs [2],enhanced
same,total tube length of FD-VECs,"FD-VECs [2]; tube formation assay, versus untreated FD-VECs",significantly increased
same,levels of KDR and eNOS,[3],increased
same,levels of p-SMAD2 and TSP1,[3],reduced
same,"levels of mesenchymal-related markers (COL1A1, ACTA2, SNAI1, and TWIST)",EndMT of FD-VECs,reduced
same,protein level of CD31,EndMT of FD-VECs,increased
same,"fluorescence intensities of EndMT-related factors (ACTA2, SNAI1, COL1A1)",EndMT of FD-VECs,reduced
same,level of ROS,FD-VECs [4],reduced the excess ROS produced in FD-VECs to the same level as that in WT- and FD(c)-VECs
same,maximal respiration,FD-VECs [5],slight decrease
same,LV mass/BW,[6],reduced
same,"cardiac ejection fraction, fractional shortening, and cardiac output",[6],significant improvements
same,anhidrosis (number of sweat spots),[7],rescued this phenotype
same,heat insensitivity (paw withdrawal latency),[8],rescued this phenotype
same,protein levels of fibrotic and inflammatory markers in renal tissues,[9],reduced
same,CD31+ACTA2+ cells in renal tissues,[9],reduced this increase
same,expression levels of F4/80 and LCN2 in renal tissues,[9],reduced
same,expression of COL1A1 in renal tissues,[9],downregulated
Cc1c(Cl)cccc1Nc1ccccc1C(=O)O [tolfenamic acid],tube formation ability,FD-VECs [2],relatively higher tube formation ability
Netarsudil mesylate,tube formation ability of Fabry disease vascular endothelial cells,[1],increased the tube formation ability
